Reference: patent publication US20250368638A1, “BICYCLIC INHIBITORS OF NICOTINAMIDE […], COMPOSITIONS AND USES THEREOF” (President and Fellows of Harvard College, priority 2021, published 2025)
Where “and” joins values, the source holds several entries; their conditions need not be identical. Identical values can stand only once.

Legend:
[1] = test system: CYP1A2, CYP2A6, CYP2B6, CYP2C8, CYP2C9, CYP2C19, CYP2D6, CYP2E and CYP3A4; assay: CYP inhibition studies in human liver microsomes; format: in vitro ADME; conditions: up to 100 μM
Description: 1. 1 μL of multiple concentrations of test compound or positive control compound (CYP1A2: furafylline, CYP2A6: tranylcypromine, CYP2B6: ketoconazole, CYP2C8: quercetin, CYP2C9: sulfaphenazole, CYP2C19: N-3-benzylnirvanol, CYP2D6: quinidine, CYP2E1: disulfiram and CYP3A4: ketoconazole) was transferred to the “Compound Plate”. The concentrations of test compounds were 0, 0.6, 2, 6, 20, 60, 2000, 6000 and 20000 μM. The concentrations of positive control compounds were 0, 0.2, 1, 2, 10, 50, 200, 2000 and 10000 μM.
2. The master solution was prepared according to the Table 9A and 9B, and pre-warmed in the water bath at 37° C. for 5 minutes. 179 μL of master solutions were transferred to “Incubation Plate”. In the mixed system, the final concentrations of test compound were 0, 0.003, 0.01, 0.03, 0.1, 0.3, 10, 30 & 100 μM, and the final concentrations of positive control compound were 0, 0.001, 0.005, 0.01, 0.05, 0.25, 1, 10 & 50 μM. All experiments were performed in duplicate.
3. The reaction was started with the addition of 20 μL of 10 mM NADPH solution at the final concentration of 1 mM and carried out at 37° C.
4. […]
5. […] The formation of metabolites was analyzed by using LC-MS/MS. […]
6. […] The formation of metabolites were analyzed by using LC-MS/MS. […] The IC50 shift was calculated for evaluating the mechanism of the inhibition.

[2] = target: T1, recombinant human NNMT (Homo sapiens, UniProt P40261); assay: in vitro NNMT enzyme inhibition assay (Promega MTase-Glo Methyltransferase Assay); format: biochemical; conditions: 40 nM recombinant human NNMT, 8 μM nicotinamide, 6.7 μM SAM, 20 minutes
T1 sequence (P40261 1-264): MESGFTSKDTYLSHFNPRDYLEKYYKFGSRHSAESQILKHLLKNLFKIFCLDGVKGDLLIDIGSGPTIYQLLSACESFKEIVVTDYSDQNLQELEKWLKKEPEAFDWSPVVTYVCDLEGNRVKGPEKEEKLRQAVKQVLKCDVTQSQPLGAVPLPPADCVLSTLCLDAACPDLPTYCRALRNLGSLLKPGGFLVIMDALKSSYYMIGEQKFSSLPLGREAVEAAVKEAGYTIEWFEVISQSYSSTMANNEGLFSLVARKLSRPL
Description: NNMT biochemical activity for was evaluated using the Promega Mtase-Glo Methyltransferase Assay kit. Assays were performed in a white, flat-bottomed 96 well plate. […] Reactions were performed for 20 minutes at room temperature. MTase-Glo reagent and MTase-Glo detection solution were added according to manufacturer's instructions and luminescence signal measured with a SpectraMax i3 plate reader and data analyzed with GraphPad Prism version 9. Scheme 16 depicts a visual summary of the Promega MTase-Glo Methyltransferase assay used to assess biochemical activity of novel inhibitors.

C[C@@H]1Cc2cc(C(N)=O)cnc2N1 [Compound 11, (2R)-2-methyl-2,3-dihydro-1H-pyrrolo[2,3-b]pyridine-5-carboxamide]
Inhibition of CYP isoforms [1]: did not inhibit | IC50 [2]: 35 nM and 35 to 42 nM
